Results: ChEMBL document CHEMBL1143485, “The synthesis and biological evaluation of dopamine transporter inhibiting activity of substituted diphenylmethoxypiperidines” (Bioorg Med Chem Lett, 2005)

Assays:
[1] = target: Sodium-dependent dopamine transporter (Rattus norvegicus, UniProt P23977); test: Displacement of [125I]RTI-55 dopamine transporter binding in rat striatal membrane; assay type: cell membranes, Striatum
[2] = tested on: Mus musculus; test: Locomotor activity in mice after intraperitoneal administration at 17.8 […]; assay type: functional

Chain of Sodium-dependent dopamine transporter (P23977 whole entry): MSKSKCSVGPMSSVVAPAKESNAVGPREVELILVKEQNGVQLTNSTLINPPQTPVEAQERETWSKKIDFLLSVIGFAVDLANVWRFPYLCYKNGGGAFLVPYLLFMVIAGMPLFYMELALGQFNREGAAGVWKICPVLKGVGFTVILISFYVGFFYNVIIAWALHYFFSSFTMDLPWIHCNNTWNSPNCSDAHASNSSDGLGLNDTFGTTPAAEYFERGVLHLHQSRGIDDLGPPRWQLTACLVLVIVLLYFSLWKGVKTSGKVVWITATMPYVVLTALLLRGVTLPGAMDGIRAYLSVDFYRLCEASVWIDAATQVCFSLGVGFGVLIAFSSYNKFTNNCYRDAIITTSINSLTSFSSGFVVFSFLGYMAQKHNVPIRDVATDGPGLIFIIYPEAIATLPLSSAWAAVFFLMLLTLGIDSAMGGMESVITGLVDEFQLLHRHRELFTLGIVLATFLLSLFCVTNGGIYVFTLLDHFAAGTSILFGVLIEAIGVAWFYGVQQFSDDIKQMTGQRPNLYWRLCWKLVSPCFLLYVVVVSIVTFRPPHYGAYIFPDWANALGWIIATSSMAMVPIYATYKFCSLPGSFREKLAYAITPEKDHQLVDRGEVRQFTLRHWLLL

Structure (SMILES) | IC50 [1] [nM] | Activity [2] [m/3h]
CC(OC1CCN(C)CC1)c1ccc(F)cc1 (centres undefined) | 264 | –
Cc1cccc(C(OC2CCN(C)CC2)c2ccccc2)c1 (centres undefined) | 293 | –
CN1CCC(OC(c2ccccc2)c2ccccc2)CC1 | – | 12.2
CCCCN1CCC(OC(c2ccc(Cl)cc2)c2ccc(Cl)cc2)CC1 | 12.5 | 3.87
CN1CCC(OC(c2ccc(Cl)cc2)c2ccc(Cl)cc2)CC1 | 44 | 5.18
COC(=O)[C@H]1[C@@H](OC(=O)c2ccccc2)C[C@@H]2CC[C@H]1N2C [COCAINE] | – | 16.7
CN1CCC(OC(c2ccccc2)c2ccc(F)cc2)CC1 (centres undefined) | 277 | –
Fc1ccc(C(OCCN2CCN(CCCc3ccccc3)CC2)c2ccc(F)cc2)cc1 [VANOXERINE] | – | 26.3
CN1CCC(OC(c2ccc(F)cc2)c2ccc(F)cc2)CC1 | – | 34.8
Fc1ccc(CN2CCC(OC(c3ccc(Cl)cc3)c3ccc(Cl)cc3)CC2)cc1 | 50.6 | –
CN1CCC(OC(c2ccccc2)c2ccc(Cl)cc2)CC1 (centres undefined) | 155 | 5.89
